Measurements published in publication PMC10331583, “Control of fibrosis with enhanced safety via asymmetric inhibition of prolyl‐tRNA synthetase 1” (EMBO Molecular Medicine, 2023).
pIC50: −log10 of the molar value. Values joined by “and” are separate entries in the source; they are usually repeats but may differ in a detail not shown here. Equal values may be shown once. Read-outs that look alike come from different tables or passages of the source.

Tests used:
WI‐26 VA4 cells = test: Puromycin incorporation assay; format: cell-based, human; conditions: for activity at 0.1 µM: WI26VA4, 100 nM; for activity at 0.3 µM: WI26VA4, 300 nM; for activity at 1 µM: WI26VA4, 1000 nM; for activity at 3 µM: WI26VA4, 3000 nM; for activity at 5 µM: WI26VA4, 5000 nM; for activity at 10 µM: WI26VA4, 10000 nM
Experimental: After being rinsed with cold PBS twice, the cells were collected and resuspended in 200 μl of the carbonate bicarbonate buffer (Sigma Aldrich, C3041‐50CAP) with protease inhibitor. The cell lysates were obtained by sonication and centrifugation at 20,000 g for 15 min at 4°C. After protein quantification using a Pierce™ BCA Protein Assay Kit (Thermo Fisher Scientific, 23225), 400 ng of the proteins was coated to ELISA plates for 18 h at 4°C. […] The plates were rinsed with the washing buffer for three times after each antibody incubation step. […] The amount of puromycin incorporated in proteins was determined by measuring the absorbance at 450 nm (reference wavelength at 620 nm). Experimental values marked in red with strikethrough text in the Figure Source Data file were excluded from the analysis. These values were determined by considering the values of biological and technical replicates under the same condition, as well as the values at the former and later chemical concentrations.

[1] = test system: TNT Quick Coupled Transcription/Translation System (luciferase synthesis); format: biochemical
[2] = Homo sapiens, read-out: Puromycin, % of control, average
[3] = Homo sapiens, read-out: Puromycin, % of control, single replicate
[4] = log(inhibitor) vs. response, variable slope (four parameters), concentration in nM

**Q.** Which results are given for Cc1c(Cl)ccc2c1ncn2CC(=O)C[C@H]1NCCC[C@@H]1O [DWN11748]?
**A.** Puromycin, % of control, single replicate (WI‐26 VA4 cells; 300 nM, 0.3 µM): 100.32 % of control and 98.22 % of control and 104.21 % of control and 104.56 % of control and 103.89 % of control and 104.45 % of control and 100.10 % of control and 97.92 % of control; Puromycin, % of control, single replicate (WI‐26 VA4 cells; 1000 nM, 1 µM): 97.71 % of control and 98.10 % of control and 102.31 % of control and 107.16 % of control and 101.57 % of control and 105.82 % of control and 108.83 % of control; Puromycin, % of control, single replicate (WI‐26 VA4 cells; 3000 nM, 3 µM): 32.63 % of control; Puromycin, % of control, single replicate (WI‐26 VA4 cells; 5000 nM, 5 µM): 22.79 % of control and 22.67 % of control and 25.49 % of control and 25.64 % of control and 24.99 % of control and 25.25 % of control and 25.95 % of control and 25.31 % of control; Puromycin, % of control, single replicate (WI‐26 VA4 cells; 10000 nM, 10 µM): 12.21 % of control and 11.47 % of control and 15.58 % of control and 13.74 % of control and 13.61 % of control and 15.33 % of control and 15.25 % of control and 13.38 % of control; Puromycin, % of control, single replicate (WI‐26 VA4 cells; 100000 nM, 100 µM): 0.86 % of control and 1.09 % of control and 0.96 % of control and 0.69 % of control and 0.0546 % of control and 1.21 % of control and 1.52 % of control and 1.41 % of control and 1.00 % of control; activity at 0.1 µM (WI‐26 VA4 cells; [2]): 106%; activity at 0.1 µM (WI‐26 VA4 cells; [3]): 113%; activity at 0.3 µM (WI‐26 VA4 cells; [2]): 102%; activity at 0.3 µM (WI‐26 VA4 cells; [3]): 102%; activity at 1 µM (WI‐26 VA4 cells; [2]): 103%; activity at 1 µM (WI‐26 VA4 cells; [3]): 101%; activity at 3 µM (WI‐26 VA4 cells; [2]): 31.2%; activity at 3 µM (WI‐26 VA4 cells; [3]): 29.7%; activity at 5 µM (WI‐26 VA4 cells; [2]): 24.6%; activity at 5 µM (WI‐26 VA4 cells; [3]): 23.1%; activity at 10 µM (WI‐26 VA4 cells; [2]): 13.7%; activity at 10 µM (WI‐26 VA4 cells; [3]): 12.4%; activity at 30 µM (WI‐26 VA4 cells; Homo sapiens, WI26VA4, 30000 nM, read-out: Puromycin, % of control, average): 1.05%; activity at 100 µM (WI‐26 VA4 cells; Homo sapiens, WI26VA4, 100000 nM, read-out: Puromycin, % of control, average): 0.98%; pIC50 (WI‐26 VA4 cells; Homo sapiens, WI26VA4, log(inhibitor) vs. response, variable slope (four parameters), read-out: Puromycin, IC50 (best-fit value)): 5.57; Puromycin, HillSlope (best-fit value) (WI‐26 VA4 cells; log(inhibitor) vs. response, variable slope (four parameters)): -2.365; Puromycin, LogIC50 (best-fit value) (WI‐26 VA4 cells; [4]): 3.428; TNT-luciferase % of control ([1]; 20 nM, Experiment #1, replicates, 0.02 µM): 124.31 % of control and 118.51 % of control and 107.73 % of control; TNT-luciferase % of control ([1]; 20 nM, Experiment #2, replicates, 0.02 µM): 122.22 % of control and 112.59 % of control and 102.96 % of control; TNT-luciferase % of control, average ([1]; 20 nM): 114.72 % of control; TNT-luciferase % of control ([1]; 60 nM, Experiment #1, replicates, 0.06 µM): 118.51 % of control and 116.02 % of control and 106.08 % of control; TNT-luciferase % of control ([1]; 60 nM, Experiment #2, replicates, 0.06 µM): 117.78 % of control and 113.33 % of control and 103.70 % of control; TNT-luciferase % of control, average ([1]; 60 nM): 112.57 % of control; TNT-luciferase % of control ([1]; 200 nM, Experiment #1, replicates, 0.2 µM): 119.34 % of control and 112.71 % of control and 116.02 % of control; TNT-luciferase % of control ([1]; 200 nM, Experiment #2, replicates, 0.2 µM): 136.30 % of control and 122.22 % of control and 131.11 % of control; TNT-luciferase % of control, average ([1]; 200 nM): 122.95 % of control; TNT-luciferase % of control ([1]; 600 nM, Experiment #1, replicates, 0.6 µM): 122.65 % of control and 113.54 % of control and 107.73 % of control; TNT-luciferase % of control ([1]; 600 nM, Experiment #2, replicates, 0.6 µM): 109.63 % of control and 101.48 % of control and 108.89 % of control; TNT-luciferase % of control, average ([1]; 600 nM): 110.65 % of control; TNT-luciferase % of control ([1]; 2000 nM, Experiment #1, replicates, 2 µM): 77.24 % of control and 79.06 % of control and 67.79 % of control; TNT-luciferase % of control ([1]; 2000 nM, Experiment #2, replicates, 2 µM): 73.56 % of control and 76.30 % of control and 68.37 % of control; TNT-luciferase % of control, average ([1]; 2000 nM): 73.72 % of control; TNT-luciferase % of control ([1]; 6000 nM, Experiment #1, replicates, 6 µM): 17.73 % of control and 16.82 % of control and 16.99 % of control; TNT-luciferase % of control ([1]; 6000 nM, Experiment #2, replicates, 6 µM): 12.15 % of control and 12.07 % of control and 13.19 % of control; TNT-luciferase % of control, average ([1]; 6000 nM): 14.83 % of control; TNT-luciferase % of control ([1]; 20000 nM, Experiment #1, replicates, 20 µM): 0.54 % of control and 0.58 % of control and 0.61 % of control; TNT-luciferase % of control ([1]; 20000 nM, Experiment #2, replicates, 20 µM): 0.11 % of control and 0.0948 % of control and 0.12 % of control; TNT-luciferase % of control, average ([1]; 20000 nM): 0.35 % of control; TNT-luciferase % of control ([1]; 60000 nM, Experiment #1, replicates, 60 µM): 0.02 % of control (2×) and 0.0164 % of control; TNT-luciferase % of control ([1]; 60000 nM, Experiment #2, replicates, 60 µM): 0.000642 % of control and -0.00528 % of control and -0.00499 % of control; TNT-luciferase % of control, average ([1]; 60000 nM): 0.00775 % of control; TNT-luciferase % of control ([1]; 200000 nM, Experiment #1, replicates, 200 µM): 0.00754 % of control and 0.000331 % of control and -0.000994 % of control; TNT-luciferase % of control ([1]; 200000 nM, Experiment #2, replicates, 200 µM): 0.0019 % of control and 0.00487 % of control and -0.000321 % of control; TNT-luciferase % of control, average ([1]; 200000 nM): 0.00222 % of control; TNT-luciferase LogIC50 (best-fit value) [1, 4]: 3.407
